Laboratory results reported in publication PMC6645578 (ACS Omega, 2017).
Where two headings read alike, the source gives them in different places.

How the values were obtained:
EstSP1 [1] = assay: p-nitrophenol release at […] nm, Lineweaver-Burk; type: biochemical, Sphingomonas sp. PAMC 26605; settings: 40 °C; 0.1-0.5 mM substrate; 3 min; Table 3 and text print 92.5
EstSP1 [2] = settings: 40 °C; 0.1-0.5 mM substrate; 3 min; text prints 247

`CCCC(=O)Oc1ccc([N+](=O)[O-])cc1` [p-nitrophenyl butyrate] showed a Km (EstSP1 [1]) of 92 ± 1.2 µM and a Km (EstSP1 [2]) of 249 ± 7.8 µM.
